These results are taken from paper PMC6100056, “Antitumor Effects and Delivery Profiles of Menahydroquinone-4 Prodrugs with Ionic or Nonionic Promoiety to Hepatocellular Carcinoma Cells” (Molecules : A Journal of Synthetic Chemistry and Natural …, 2018).

The test system of one data set is PLC/PRF/5 cells. The data set can be described thus: Uptake of MKH-ester derivatives in HCC cells (Michaelis-Menten kinetics). In kind it is in vitro ADME. The settings on record: for Vmax (uptake of MKH-ester): PLC/PRF/5 cells, Michaelis-Menten fit, 95% confidence interval in square brackets. The method, then:
(§1) To assess the uptake of the intrinsic MKH-ester derivatives as the first step of MKH delivery into HCC cells, the velocities of uptake of MKH-ester derivatives were plotted and fitted with the Michaelis--Menten model (as shown in Figure 3), and the calculated kinetic parameters were determined (Table 1). All three derivatives increased in both PLC/PRF/5 and SK-Hep-1 cells in a dose-dependent manner. The uptake of MKH-SUC was clearly higher than that of MKH-DMG and MKH-ACT at all concentrations examined. The ratio of the […] (Vmax/Km) for MKH-SUC was about 5- to 10-fold higher than those for MKH-ACT and MKH-DMG in both cell lines.
(§2) HCC cells were plated at 1.5 × 10^5 cells/well in 6-well plates and allowed to attach for 48 h. Cells were cultured in medium containing MK-4, MKH-ACT, MKH-DMG or MKH-SUC for various intervals. After the drug exposure, media were removed, and cells were washed three times with PBS. Cells were collected in 1 mL of PBS and sonicated. The cell homogenates were combined with an equal volume of methanol and three times volume of n-hexane, vortexed for 2 min and centrifuged at 1750× g for 10 min. The organic layer was evaporated under N2 gas. The residue was reconstituted with 100 μL of methanol, sonicated for 10 s and subjected to LC-UV or LC-MS/MS analysis, as described below. The protein concentration of the cell homogenate was determined using a BCA protein assay kit.
(§3) The LC system was the same as that described in the 4.8.1 LC-MS/MS section, and the UV detector was a Prominence SPD-20A (Shimadzu Corp., Kyoto, Japan). Separations were performed on the same column mentioned in the 4.8.1 LC-MS/MS section and monitored at a wavelength of 240 nm. The mobile flow was a binary gradient: (A) 0.1% acetic acid in water and (B) 0.1% acetic acid in methanol. The total flow rate was 0.3 mL/min; 0 min at 80% B, 1 min at 80% B, 4.0 min at 100% B, 7.0 min at 100% B and 8.0 min at 80% B. The Column temperature was 40 °C. The retention times were as follows: MKH-DMG, 9.2 min; MKH-ACT, 8.2 min; and MKH-SUC, 6.6 min.
(§4) For the determination of Km and Vmax for the uptake and enzymatic activation of MKH-esters, concentration-dependency data were fit to the Michaelis--Menten equation:V = Vmax·[S]/(Km + [S])(1) where V represents the velocity of action between the substrate and transportation/enzymatic reaction, [S] refers to the concentration of the substrate and Km is defined as the concentration of substrate at the half-maximal rate of action (Vmax). Data were analyzed by GraphPad Prism (GraphPad Software).

Another data set concerns SK-Hep-1 cells. Described as above. The format is in vitro ADME. As to conditions: Michaelis-Menten fit, 95% confidence interval in square brackets. The method, then: as §1, §2, §3, §4
Assay in data set [1]: as above
In kind it is in vitro ADME. As to conditions: human, Michaelis-Menten fit, 95% confidence interval in square brackets. The method, then: as §1, §2, §3, §4

Details of data set [2]: method as in PMID 17537874, PMID 10077437. The settings on record: cited from earlier work.
The nature of data set [3]: Hydrolysis of MKH-SUC in isotonic buffer solution (PBS). As to conditions: in PBS at 37 °C; read-out: Half-life toward MKH (converted). In kind it is physicochemical. The method, then:
Next, a time course of MKH delivery with the MKH derivatives, including MK-4, was investigated. The AUC0–24h values for MKO after treatment of MKH-SUC was the highest among the three MKH-derivatives in both HCC cell lines, and the AUC0–24h values for MKH after treatment of MKH-SUC were also the highest (Table 3). […] However, the difference in MKH delivery was not higher than that of the regeneration to MKH by the esterase of HCC (Figure 4 and Table 2). […] These differences may result from the actual amount (nearly equal to Vmax values) of uptake and the regeneration step between MKH-ACT and MKH-DMG, and the rates of transportation/enzymatic reactions to the substances (Km) of MKH-ACT and MKH-DMG may be sufficient to reach Vmax under the test conditions shown in Figure 5. […] Regarding the decrease of MK-4 after 24 h treatment of MKH-SUC in both cells (Figure 5D,H), this phenomenon may be explained by the disposition of hydrolysis of MKH-SUC in an isotonic buffer solution. […] This is because, at 24 h, the delivery of MKH, which acts as a cofactor of GGCX, remained sufficient, but excess MKH that would be oxidized to MK-4 may be reduced with the elimination of MKH-SUC.

[4] abbreviates: PLC/PRF/5 cells (HCC cell line), PLC/PRF/5 cells.

SMILES strings stand for the structures. Where a name gives a salt, the structure may show the parent alone.

The compound `CC(=O)Oc1c(C)c(C/C=C(\C)CC/C=C(\C)CC/C=C(\C)CCC=C(C)C)c(OC(C)=O)c2ccccc12` [MKH-ACT, Menahydroquinone-4 1,4-bis acetate] had a melting point of 39 to 41 °C. Besides, in the data set with PLC/PRF/5 cells, the “Vmax (uptake of MKH-ester)” value is 2.76 [1.70 to 3.81] nmol·mg of Protein^−1·h^−1. For the same compound, in the data set with SK-Hep-1 cells, the “Vmax (uptake of MKH-ester)” value is 20.3 [−9.47 to 50.0] nmol·mg of Protein^−1·h^−1. In data set [1] (setting [4]), the Michaelis-Menten constant (Km) was determined as 31.9 µM. For the same compound, the Michaelis-Menten constant (Km) in data set [1] (SK-Hep-1 cells (HCC cell line)) was found to be 227 µM.

`CC(C)=CCC/C(C)=C/CC/C(C)=C/CC/C(C)=C/Cc1c(C)c(OC(=O)CN(C)C)c2ccccc2c1OC(=O)CN(C)C` [MKH-DMG, Menahydroquinone-4 1,4-bis-N,N-dimethylglycinate hydrochloride]: the “Hydrolysis in human plasma” value in data set [2] is given as “not accelerated”. Moreover, the figures for the “Vmax (uptake of MKH-ester)” value in the data set on PLC/PRF/5 cells and in the data set on SK-Hep-1 cells were 28.9 [−4.27 to 62.1] nmol·mg of Protein^−1·h^−1 and 62.6 [4.69 to 121] nmol·mg of Protein^−1·h^−1, respectively. Moreover, the Km amounted to 447 µM in data set [1] (setting [4]) and 556 µM in data set [1] (SK-Hep-1 cells (HCC cell line)).

As to `CC(C)=CCC/C(C)=C/CC/C(C)=C/CC/C(C)=C/Cc1c(C)c(OC(=O)CCC(=O)O)c2ccccc2c1OC(=O)CCC(=O)O` [MKH-SUC, Menahydroquinone-4 1,4-bis hemisuccinate], in data set [3], the half-life is approximately 25 h. Besides, the “Vmax (uptake of MKH-ester)” value in the data set with PLC/PRF/5 cells is 345 [84.0 to 606] nmol·mg of Protein^−1·h^−1; with SK-Hep-1 cells, 261 [74.7 to 448] nmol·mg of Protein^−1·h^−1. Also, the “Vmax/Km of uptake, higher than those for MKH-ACT and MKH-DMG” value in the data set with PLC/PRF/5 cells (in both cell lines (PLC/PRF/5 and SK-Hep-1)) is given as 5- to 10 fold. The values for the Michaelis constant (Km) in data set [1] (setting [4]) and in data set [1] (SK-Hep-1 cells (HCC cell line)) were 712 µM and 381 µM, respectively.

What is called Km is the substrate concentration at which the rate is half of its maximum. A word on the melting point: it is the temperature, or range, at which the solid turns liquid. A word on the half-life: it is how long it takes for the measured level to halve.
